# Key:
# Format in all cases: cell-based, human
# CTNNB1 locus in iPSCs [1] = experiment: sgRNA cleavage efficiency at CTNNB1; details: targets 39 bp before the stop codon, data not shown
# CTNNB1 locus in iPSCs [2] = experiment: Effects of small molecules and factors on HDR efficiency, FACS; details: for effect on HDR efficiency at the CTNNB locus: donor pD-mNeonGreen-sg-HA300-300 bp, added first 24 h: RS-1 10 μM, Nu7441 2 μM, SCR7 1 μM, Brefeldin A 0.1 μM, L755507 5 μM
# Text: (§1) In this experiment, the verified highly efficient pD-sg-HA300-300 bp double cut donor and multiple small molecules were used to examine the effects on HDR of both the CTNNB1 and PRDM14 loci in iPSCs. Multiple small molecules include RS-1 (a stimulator of human homologous recombination protein RAD51), NU7441 (a DNA-PKcs inhibitor), SCR7 (a DNA ligase IV inhibitor), Brefeldin A, L755507, and
# (§2) iPSCs were evenly split into eight wells after nucleofection with Cas9/sgRNA and the relevant double cut donor (pD-mNeonGreen-sg-HA300-300 bp or pD-GFP-sg-HA300-300 bp). DMSO control (0.1%), RS-1 (10 μM), Nu7441 (2 μM), SCR7 (1 μM), Brefeldin A (0.1 μM), L755507 (5 μM), Nocodazole (100 ng/mL), or Nu7441 (2 μM) and SCR7 (1 μM) were added in the wells for the first 24 h and then the medium was changed with fresh medium thereafter. Three days after nucleofection, cells were harvested for FACS analysis to determine the HDR efficiency in each condition.
# (§3) The plasmid encoding RAD51, Ad4E1B-Eorf46, or CCND1 was co-transfected with Cas9, sgRNA, and donor plasmid (pD-mNeonGreen-sg-HA300-300 bp or pD-GFP-sg-HA300-300 bp). Three days after transfection, cells were harvested for FACS analysis to determine the HDR efficiency in each condition.
# (§4) In this experiment, CCND1 and Nocodazole were used together to examine the effects on HDR of both the CTNNB1 and PRDM14 loci in iPSCs. The plasmid encoding CCND1 was co-transfected with Cas9, sgRNA, and donor plasmid (pD-mNeonGreen-sg-HA300-300 bp or pD-GFP-sg-HA300-300 bp). Nocodazole (100 ng/mL) was added into the medium at 0-24 h after transfection. Three days after incubation, cells were harvested for FACS analysis to determine the HDR efficiency in each condition.
# PRDM14 locus in iPSCs [3] = experiment: as above
# Text: as §1, §2, §3, §4
# [4] = test system: CTNNB1 locus in the H1 ES cells; experiment: Effects of small molecules on HDR efficiency, FACS; details: FACS day 3; for effect on HDR efficiency at the CTNNB locus: donor pD-mNeonGreen-sg-HA300-300 bp, added first 24 h: RS-1 10 μM, Nu7441 2 μM, SCR7 1 μM, Brefeldin A 0.1 μM, L755507 5 μM
# Protocol: as §2, with “In this experiment, the H1 ES cells” for “iPSCs”
# [5] = test system: PRDM14 locus in the H1 ES cells; experiment: Effects of small molecules on HDR efficiency, FACS; details: FACS day 3; for effect on HDR efficiency at the PRDM14 locus: donor pD-GFP-sg-HA300-300 bp, added first 24 h: RS-1 10 μM, Nu7441 2 μM, SCR7 1 μM, Brefeldin A 0.1 μM, L755507 5 μM
# Protocol: as §2, with “In this experiment, the H1 ES cells” for “iPSCs”
# PRDM14 locus in iPSCs [6] = experiment: sgRNA cleavage efficiency at PRDM14; details: cleavage site 4 bp downstream of the stop codon, data not shown
# [7] = donor pD-GFP-sg-HA300-300 bp, added first 24 h: RS-1 10 μM, Nu7441 2 μM, SCR7 1 μM, Brefeldin A 0.1 μM, L755507 5 μM, FACS day 3, vs DMSO
# [8] = Nocodazole 100 ng/mL first 24 h, FACS day 3, vs DMSO, P<0.001
# [9] = Nocodazole 100 ng/mL first 24 h
Molecule,"effect on HDR efficiency at the CTNNB locus (CTNNB1 locus in iPSCs [2]; FACS day 3, vs DMSO)",effect on HDR efficiency at the PRDM14 locus (PRDM14 locus in iPSCs [3]; [7]),effect on HDR efficiency at the CTNNB locus [4],effect on HDR efficiency at the PRDM14 locus [5],also measured
"sgCTNNB1: sgRNA targeting 39 bp before the CTNNB1 stop codon, GCTGATTGCTGTCACCTGG (SEQ ID NO: 5) (listed as DNA, chemistry not given here)",,,,,cleavage efficiency (CTNNB1 locus in iPSCs [1]): 60%
O=c1[nH]c(=S)[nH]c(N=Cc2ccccc2)c1N=Cc1ccccc1 [SCR7],did not show significant improvement,did not show significant improvement,did not show significant improvement,did not show significant improvement,
"O=c1cc(N2CCOCC2)oc2c(-c3cccc4c3sc3ccccc34)cccc12 [Nu7441, NU7441]",less pronounced improvement,only at the CTNNB locus,less pronounced improvement,only at the CTNNB locus,
C[C@H]1CCC/C=C/[C@@H]2C[C@H](O)C[C@H]2[C@H](O)/C=C/C(=O)O1 [Brefeldin A],less pronounced improvement,only at the CTNNB locus,less pronounced improvement,only at the CTNNB locus,
CCCCCCNC(=O)Nc1ccc(S(=O)(=O)Nc2ccc(CCNC[C@H](O)COc3ccc(O)cc3)cc2)cc1 [L755507],did not show significant improvement,did not show significant improvement,did not show significant improvement,did not show significant improvement,
O=C(Nc1ccc(Br)cc1)c1ccc(Br)c(S(=O)(=O)NCc2ccccc2)c1 [RS-1],did not show significant improvement,did not show significant improvement,did not show significant improvement,did not show significant improvement,
"sgPRDM14: sgRNA targeting the sequence surrounding the PRDM14 stop codon, GAAGACTACTAGCCCTGCC (SEQ ID NO: 11) (listed as DNA, chemistry not given here)",,,,,cleavage efficiency (PRDM14 locus in iPSCs [6]): ~30%
COC(=O)Nc1nc2ccc(C(=O)c3cccs3)cc2[nH]1 [Nocodazole],,,,,"increase of HDR efficiency at the CTNNB locus (CTNNB1 locus in iPSCs [2]; [8]): ~50%; increase of HDR efficiency at the PRDM14 locus (PRDM14 locus in iPSCs [3]; [8]): ~50%; increase of HDR efficiency at the CTNNB locus [4, 9]: ~50%; increase of HDR efficiency at the PRDM14 locus [5, 9]: ~50%"
"RAD51: key factor in the homologous recombination pathway, given as EF1-driven expression plasmid (protein, UniProt Q06609 2-339, looked up, expressed from EF1 plasmid) DNA repair protein RAD51 …: AMQMQLEANADTSVEEESFGPQPISRLEQCGINANDVKKLEEAGFHTVEAVAYAPKKELINIKGISEAKADKILAEAAKLVPMGFTTATEFHQRRSEIIQITTGSKELDKLLQGGIETGSITEMFGEFRTGKTQICHTLAVTCQLPIDRGGGEGKAMYIDTEGTFRPERLLAVAERYGLSGSDVLDNVAYARAFNTDHQTQLLYQASAMMVESRYALLIVDSATALYRTDYSGRGELSARQMHLARFLRMLLRLADEFGVAVVITNQVVAQVDGAAMFAADPKKPIGGNIIAHASTTRLYLRKGRGETRICKIYDSPCLPEAEAMFAINADGVGDAKD",,,,,"effect on HDR efficiency at the CTNNB1 locus (CTNNB1 locus in iPSCs [2]; expression plasmid co-transfected with Cas9, sgRNA and pD-mNeonGreen-sg-HA300-300 bp, FACS day 3, P<0.001): significantly decreased; effect on HDR efficiency at the PRDM14 locus (PRDM14 locus in iPSCs [3]; expression plasmid co-transfected with Cas9, sgRNA and pD-GFP-sg-HA300-300 bp, FACS day 3, P<0.001): significantly decreased"
